From PubChem BioAssay AID1963439 (Molecular Pharmacology Branch, DTP, NCI, 2024)

Tested on: NCI-H196 complex spheroids with HUVEC/MSC, growth % T/C
Assay: Anticancer human tumor NCI-H196 cell line growth inhibition [Asc];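 note: spheroids exposed to compound for 7 days before measurement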;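 for viability, T/C: 100% = DMSO vehicle control wells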
Settings: for IC50: curve of first compound; for viability, T/C: stronger effect = lower value
Method in brief: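 Complex solid-tumor spheroids incorporating human endothelial and mesenchymal stem cells received single agents or combinations over half-log dilution ranges anchored to clinical Cmax.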

Cc1nc(N2CCC3(CC2)COC(C)C3N)c(CO)nc1Sc1ccnc(N)c1Cl (stereo not given) + CCN1C(C(=O)NC23CCC(C(=O)O)(CC2)CC3)C(c2cccc(Cl)c2F)C2(C(=O)Nc3cc(Cl)ccc32)C12CCCCC2
IC50 (second compound 0.03 µM): 1540 nM | IC50 (second compound 0.0949 µM): 1900 nM | IC50 (second compound 0.3 µM): 1600 nM | IC50 (second compound 0.949 µM): 1730 nM | IC50 (second compound 3 µM): 1570 nM | viability, T/C (second compound 0.03 µM, first compound 0.00949 µM): 102% | viability, T/C (second compound 0.03 µM, first compound 0.03 µM): 103% | viability, T/C (second compound 0.03 µM, first compound 0.0949 µM): 115% | viability, T/C (second compound 0.03 µM, first compound 0.3 µM): 102% | viability, T/C (second compound 0.03 µM, first compound 0.949 µM): 64.6% | viability, T/C (second compound 0.03 µM, first compound 3 µM): 30.2% | viability, T/C (second compound 0.0949 µM, first compound 0.00949 µM): 108% | viability, T/C (second compound 0.0949 µM, first compound 0.03 µM): 113% | viability, T/C (second compound 0.0949 µM, first compound 0.0949 µM): 109% | viability, T/C (second compound 0.0949 µM, first compound 0.3 µM): 95.5% | viability, T/C (second compound 0.0949 µM, first compound 0.949 µM): 74.1% | viability, T/C (second compound 0.0949 µM, first compound 3 µM): 34.5% | viability, T/C (second compound 0.3 µM, first compound 0.00949 µM): 118% | viability, T/C (second compound 0.3 µM, first compound 0.03 µM): 124% | viability, T/C (second compound 0.3 µM, first compound 0.0949 µM): 119% | viability, T/C (second compound 0.3 µM, first compound 0.3 µM): 99.8% | viability, T/C (second compound 0.3 µM, first compound 0.949 µM): 69.1% | viability, T/C (second compound 0.3 µM, first compound 3 µM): 27.9% | viability, T/C (second compound 0.949 µM, first compound 0.00949 µM): 124% | viability, T/C (second compound 0.949 µM, first compound 0.03 µM): 137% | viability, T/C (second compound 0.949 µM, first compound 0.0949 µM): 119% | viability, T/C (second compound 0.949 µM, first compound 0.3 µM): 107% | viability, T/C (second compound 0.949 µM, first compound 0.949 µM): 72.1% | viability, T/C (second compound 0.949 µM, first compound 3 µM): 29.9% | viability, T/C (second compound 3 µM, first compound 0.00949 µM): 136% | viability, T/C (second compound 3 µM, first compound 0.03 µM): 130% | viability, T/C (second compound 3 µM, first compound 0.0949 µM): 121% | viability, T/C (second compound 3 µM, first compound 0.3 µM): 106% | viability, T/C (second compound 3 µM, first compound 0.949 µM): 67.4% | viability, T/C (second compound 3 µM, first compound 3 µM): 26.5%
